Where no end group is shown, it is not given here.

One data set has as its target H-2D^d/TAPBPR complex (Mus musculus, UniProt P01900).
For the next data set, the target named is H-2D^d (Mus musculus, UniProt P01900). The note with it: cited from earlier work.
Another data set addresses H-2L^d/TAPBPR complex (Mus musculus, UniProt P01897). In words: SEC TAPBPR binding with LC-MS peptide occupancy. Particulars: QL9 with 10 mM Gly-Phe dipeptide.
A short description of data set [1]: Nano differential scanning fluorimetry (nanoDSF). Format: physicochemical. Particulars: FIG. 18B. On the procedure: 10 uL of each sample was loaded on the Prometheus NT.48 instrument (NanoTemper) using the high sensitivity capillaries. NanoDSF measurements are performed using a temperature ramp rate of 1° C./min from 25° C. to 95° C. and an LED intensity of 20%. Data is analyzed using the PR Control software (NanoTemper). Melting temperatures (Tm values) correspond to the inflection points of the first derivative of the 330/350 nm fluorescence ratio. Experiments were performed in duplicates and the shaded areas (FIG. 18B) are representative of the error.
(In general: Differential scanning fluorimetry follows unfolding on heating by fluorescence.)

Sequence of H-2L^d/TAPBPR complex (P01897 25-309 limits assumed): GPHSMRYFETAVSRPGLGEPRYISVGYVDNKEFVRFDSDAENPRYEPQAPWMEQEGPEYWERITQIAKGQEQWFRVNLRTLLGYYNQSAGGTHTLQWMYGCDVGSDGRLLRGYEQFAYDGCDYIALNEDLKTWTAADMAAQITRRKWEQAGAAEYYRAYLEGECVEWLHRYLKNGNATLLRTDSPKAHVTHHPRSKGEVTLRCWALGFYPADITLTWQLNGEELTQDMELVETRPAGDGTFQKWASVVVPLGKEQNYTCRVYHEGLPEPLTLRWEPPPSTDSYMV
Sequence of H-2L^d/TAPBPR complex (P61769 21-119 partner): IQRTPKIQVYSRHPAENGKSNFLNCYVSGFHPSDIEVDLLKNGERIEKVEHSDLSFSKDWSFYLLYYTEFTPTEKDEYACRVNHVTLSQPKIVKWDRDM
Sequence of H-2D^d (P61769 21-119): as the sequence (P61769 21-119 partner) above
Sequence of H-2D^d (P01900 25-311): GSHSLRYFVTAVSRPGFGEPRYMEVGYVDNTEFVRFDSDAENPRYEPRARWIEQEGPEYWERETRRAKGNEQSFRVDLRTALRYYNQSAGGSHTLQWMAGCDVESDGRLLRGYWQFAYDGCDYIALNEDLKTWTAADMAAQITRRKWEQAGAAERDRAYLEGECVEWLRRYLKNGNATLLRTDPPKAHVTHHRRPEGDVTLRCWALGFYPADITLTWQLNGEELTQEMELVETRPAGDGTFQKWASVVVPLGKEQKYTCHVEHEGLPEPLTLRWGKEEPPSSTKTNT
Sequence of H-2D^d/TAPBPR complex (P01900 25-311): as above
Sequence of H-2D^d/TAPBPR complex (P61769 21-119, further chain): as the sequence (P61769 21-119 partner) above

Take GPGRAFVTI [gP18-I10]: the “peptide occupancy in the presence of TAPBPR” value (“peptide occupancy” below) at H-2D^d/TAPBPR complex is on record as “dissociates in the presence of TAPBPR”. The “increase in the peptide off-rate relative to full-length P18-I10” value on H-2D^d was 100 fold.

In the case of QLSPFPFDL [QL9, reference compound], the “peptide occupancy” value at H-2L^d/TAPBPR complex is given as “could obtain empty H-2L^d:TAPBPR complexes”. Turning to “TAPBPR: TAPasin Binding Protein Related chaperone, recombinant luminal domain”, in data set [1], the “Tm (nanoDSF inflection point)” value is 52.5 °C. On to “_PNVNIHNF (not fully specified (N-terminus); printed as _PNVNIHNF) [gp29]”, for which the “peptide occupancy” value with H-2L^d/TAPBPR complex is “remained bound”.

These data come from patent US12630606B2, “Peptide deficient-MHC class I/chaperone compositions and methods” (priority 2018, dated 2026).
